The values that follow come from the METLIN SMRT retention time set (Domingo-Almenara et al. 2019).

This data set is described as follows: gradient 5% acetonitrile 3 min, to 50% in 2 min, to 85% in 15 min, held 3 min, 100 µL/min. To be noted: column: Zorbax Extend-C18 2.1 x 50 mm; eluents: water / acetonitrile, 0.1% formic acid. In short, it runs like this: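 In both positive and negative ionization mode, a quadrupole time-of-flight mass spectrometer coupled to HPLC analyzed pure standards run in mixtures of ~100 molecules. The Zorbax Extend-C18 column (2.1 × 50 mm, 1.8 μm) was operated at 100 μL/min with water and acetonitrile, each containing 0.1% formic acid. The dead volume was 40 μL and the dwell volume 900 μL. Retention time came from adduct peaks that were computationally picked and individually inspected by hand.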
`O=C(Nc1ccc(F)cc1)N1CCC(n2cnc3c(Cl)cccc3c2=O)CC1` showed an RP-LC retention time of 805 s.
Then `CC(=O)N1CCc2cc(N3CC(C(=O)NCc4ccc(F)cc4F)CC3=O)ccc21` (centres undefined), with 692 s; and `CCc1cc2c(N3CCCC(C(=O)N(C)C)C3)nccc2s1` (centres undefined), with 640 s.
As for `Cn1nc(C2CCCNC2)n(Cc2ccccc2)c1=O` (centres undefined), the figure is 556 s; as for `CCOc1ccc(NC(=O)C2CCN(S(=O)(=O)c3ccc4c(c3)NC(=O)C(C)O4)CC2)cc1` (centres undefined), 880 s; as for `CCc1c(C(=O)O)nnn1Cc1cccc(OC)c1`, 687 s.
Then `CCNC(=O)N1CCCC1c1nc(-c2ccc(OC)cc2)no1` (centres undefined), with 761 s.
Take `Cn1cccc1C(=O)N1CCCC1c1nc(-c2ccccc2)n[nH]1` (centres undefined): the RP-LC retention time is 716 s.
Then `CN1c2ccccc2C(=O)NC12CCN(C(=O)Nc1cccc(F)c1)CC2`, with 726 s; and `Cc1ccsc1CN1CC(Oc2ccc(-c3noc(C4CCOCC4)n3)cc2)C1`, with 690 s; and `CCCn1cnc2ccc(-c3noc(CNC(=O)c4ccccc4)n3)cc21`, with 655 s.
Then `O=C(c1ccc(CS(=O)(=O)c2c(Cl)cccc2Cl)o1)N1CCN(c2ccccn2)CC1`, with 634 s; and `O=C(c1cccc(Br)c1)N1CCC(n2c(-c3ccco3)nc3cccnc32)C1` (centres undefined), with 814 s; and `CCN(Cc1ccccc1)Cc1cc(=O)n2cc(Cl)ccc2n1`, with 616 s.
As for `COc1ccc(N2CCN(Cc3nc(-c4ccc(N5CCCC(C)C5)nc4)no3)CC2)cc1` (centres undefined), the figure is 1020 s.
As to `Cc1ccc2nc(CN(C)Cc3ccc(Cl)cc3)cc(=O)n2c1`, the RP-LC retention time is 627 s.
In turn, `CCn1cc(-c2nc(C(=O)NCc3cc(F)cc(F)c3)cs2)c2cccnc21` returned an RP-LC retention time of 1030 s.
As for `Cc1oc(C2CCC2)nc1C(=O)NCc1ccccc1C(F)(F)F`, the figure is 1130 s; as for `CCOC(=O)C1=C(CN2CCc3ccccc3C2)NC(=O)NC1c1cccc(OC)c1OC` (centres undefined), 660 s.
As for `Cc1cccc(-c2noc(Cn3c(=O)n(-c4ccc(F)cc4)c(=O)c4sccc43)n2)c1`, the figure is 1030 s; as for `Cc1ccc(-n2c(=O)c3c(cc(C)n3C)n(CC(=O)Nc3cccc(C#N)c3)c2=O)cc1`, 822 s.
The molecule `Cc1ccc(S(=O)(=O)Nc2ccc3c(c2)CCC(=O)N3CC(C)C)c(C)c1` registered an RP-LC retention time of 945 s.
As for `COc1cccc(S(=O)(=O)N2CCC(n3cnnc3C3CC3)CC2)c1`, the figure is 695 s; as for `Cc1csc(-c2ccc(CNC(=O)c3cc(F)cc(F)c3)cc2)n1`, 939 s; as for `CC1CCCCN1CCN(CCC(=O)N1CCNCC1)C(=O)c1ccc(C(C)(C)C)cc1` (centres undefined), 593 s.
Then `CCCc1noc(CN2N=C(C(=O)N3CCC(C)CC3)S(=O)(=O)c3ccccc32)n1`, with 954 s; and `Cc1ccc(CNC(=O)Cn2nc(C(=O)N3CCOCC3)c3ccccc32)cc1`, with 753 s; and `Cc1cc(C)cc(Nc2c(C(=O)N3CCC(C)CC3)cnc3nc(C)ccc23)c1`, with 693 s.
Then `CCn1cc(-c2nc(C(=O)Nc3cccc(C(=O)OC)c3)cs2)c2cccnc21`, with 1060 s.
Molecule `CCOC(=O)CNC(=O)N1CCN(CCn2c(C(F)(F)F)nc3cccnc32)CC1` registered an RP-LC retention time of 588 s.
Then `Cc1noc(C)c1-c1ccc(S(=O)(=O)N2CCc3ccccc32)cc1`, with 1040 s.
Then `O=C(Cn1ncc2c(N3CCN(c4ccccn4)CC3)ncnc21)Nc1cccc(Br)c1`, with 648 s.
As for `O=C(Nc1ccc(NC(=O)N2CCC(C(=O)NCC3CC3)CC2)cc1)NC1CCCCC1`, the figure is 733 s.
With `CCc1ccccc1NC(=O)C1CCCN(c2nc3c(s2)c(C)nn3-c2cccc(F)c2)C1` (centres undefined), the RP-LC retention time was 1260 s.
As for `CCOc1cccc(-c2noc(-c3nnn4c3COC(c3cccc(OC)c3)C4)n2)c1` (centres undefined), the figure is 1210 s; as for `COc1nn(C)cc1C(=O)N1CCCC(C(=O)NCc2ccccc2OC(F)(F)F)C1` (centres undefined), 705 s.
As for `O=S(=O)(c1cccc(Br)c1)N1CCc2nc(-c3ccccc3)ncc2C1`, the figure is 1130 s; as for `COc1ccc(NC(=O)C2CCCN(c3cnc4nccnc4c3)C2)cc1F` (centres undefined), 726 s.
Then `Cc1nccn1Cc1noc(-c2cccc(F)c2)n1`, with 611 s; and `O=C(C1CCCN(c2ccc(-c3ccccc3)nn2)C1)N1CCN(C2CCCCC2)CC1` (centres undefined), with 597 s.
As for `Fc1ccc(-c2ccc(-c3nn4c(-c5ccco5)nnc4s3)o2)cc1`, the RP-LC retention time came to 896 s.
Then `O=C(Nc1cccc(F)c1)N1CCC(N2CCN(Cc3ccccc3)C(=O)C2=O)CC1`, with 732 s; and `CSc1ccc(NC(=O)N2CCC(c3nc(C(=O)N4CCCCC4)c(C)o3)CC2)cc1`, with 840 s; and `Cc1nc(C)c(C(=O)NCC23CCCC=C2N(CC2CC2)C(=O)CC3)s1` (centres undefined), with 785 s.
As for `CNC(=O)c1ccc2c(c1)CCN2C(=O)C(C)C`, the figure is 644 s; as for `O=C1COc2cc(S(=O)(=O)N3CCCC3C(=O)NC3CCCCC3)c(Cl)cc2N1` (centres undefined), 779 s; as for `CC(C)n1cnc(S(=O)(=O)N2CCC(C(=O)NCc3cccs3)CC2)c1`, 701 s.
As for `Cc1cc(C)cc(NC(=O)C2CCN(S(=O)(=O)c3cc(C(=O)N4CCCC4)n(C)c3)CC2)c1`, the figure is 843 s; as for `CC(C)c1nc2c(NC(=O)c3ccsc3)cccn2n1`, 866 s; as for `CC1CCCN(CCCNC(=O)CN2C(=O)CCc3cc(S(=O)(=O)N4CCCCC4)ccc32)C1` (centres undefined), 638 s.
In turn, `Cc1cc2nc(C(=O)Nc3ccc(C)c(C)c3)cc(C)n2n1` displayed an RP-LC retention time of 1090 s.
As for `CS(=O)(=O)N1CCC(C(=O)NC2CCCC(OC(=O)Nc3ccc(F)cc3)C2)CC1` (centres undefined), the figure is 704 s; as for `[O-][n+]1ccc(CC(O)(C(F)(F)F)C(F)(F)F)cc1`, 674 s; as for `CC(C)c1ccc2c(c1)-c1ccccc1S(=O)(=O)N2CC(=O)NCCN1CCOCC1`, 692 s.
As for `CCOC(=O)CCNC(=O)N1CCCN(C)c2ccccc21`, the figure is 623 s.
Then `COc1ccc(-c2nc(C3CC(=O)N(c4ccc(C)cc4)C3)no2)cc1OC` (centres undefined), with 937 s.
Consider `CCN1CCN(CCNC(=O)CN2CCCc3nc(C4CC4)ncc3C2=O)CC1`, for which the RP-LC retention time is 564 s.
As for `Cc1cc2c(cc1S(=O)(=O)N1CCC(C(=O)N3CCCCC3)CC1)OCC(=O)N2`, the figure is 734 s.
Then `O=C(CSc1ncnc2c1oc1ccccc12)Nc1nc2ccccc2s1`, with 902 s; and `CC1(C)CC(=O)c2cn(-c3ccc(F)cc3)c(=O)c(C(=O)N3CCC(N4CCCCC4)CC3)c2C1`, with 634 s.
For the molecule `CNC(=O)[C@@H]1C[C@@H](O)CN1C1CCN(C(=O)C2CCCCC2)CC1`, the RP-LC retention time is 577 s.
As for `Cn1nc(C(=O)N2CCC3(CC2)N=C(c2ccc(Br)cc2)NO3)c2ccccc21`, the figure is 916 s; as for `O=C(O)COc1ccc(OCCNC[C@H](O)COc2ccccc2)cc1`, 679 s; as for `O=C(CCc1c(-c2ccccc2)nc2ccccn12)Nc1ccccc1C(F)(F)F`, 691 s.
Then `CCCC(C)C(=O)N1CCCN(C2=NS(=O)(=O)C(c3ccc(C)cc3)=C2C)CC1` (centres undefined), with 884 s; and `Cc1nnc(N2CCCC(C(=O)N3CCC4(CC3)OCCO4)C2)c2nn(-c3ccccc3)c(C)c12` (centres undefined), with 660 s; and `Cc1sc(NC(=O)c2ccc(F)cc2)nc1-c1ccc(Br)cc1`, with 1240 s.
As for `CN(C)CCCNC(=O)c1cn(C)nc1S(=O)(=O)N1CCN(c2ccc(Cl)cc2)CC1`, the figure is 684 s; as for `Cc1cc(C)c(C(=O)N2CCC(CC(=O)NCCC(C)C)CC2)[nH]1`, 764 s; as for `O=C(c1csc(S(=O)(=O)N2CCC(C(=O)N3CCCC3)CC2)c1)N1CCCCCC1`, 769 s.
`CC1=C(c2ccc(C)cc2)S(=O)(=O)N=C1N1CCCN(C(=O)CC2CCCC2)CC1` displayed an RP-LC retention time of 910 s.
Then `Cc1ccc(S(=O)(=O)N2C(=O)CCC2C(=O)NC2CCCC2)cc1C` (centres undefined), with 855 s.
As for `NC(=O)C1CCN(c2ncnc3c2cnn3-c2ccc(Cl)cc2)CC1`, the figure is 732 s.
As for `CN1C(=O)c2cc(C(=O)N3CCN(c4ccccc4F)CC3)nn2CC1(C)C(=O)NC1CCCCC1` (centres undefined), the figure is 834 s; as for `O=C(c1ccc2c(c1)OCO2)N1CCC2(CC1)NC(=O)N(Cc1ccccc1)C2=O`, 760 s.
As to `Cc1cccc(N2CCN(C(=O)Cn3c(=O)c4nncn4c4ncccc43)CC2)c1C`, the RP-LC retention time was found to be 791 s.
As for `Cc1ccc(S(=O)(=O)N2CCC(n3c(-c4ccco4)nc4cccnc43)C2)cc1` (centres undefined), the figure is 863 s.
Then `CCCc1nc(NCc2cccnc2)ncc1C(=O)O`, with 569 s.
As for `Cc1ccc(CN2CCCn3nc(C(=O)NCCc4c[nH]c5ccc(Cl)cc45)cc3C2=O)cc1`, the figure is 953 s.
